Data taken from patent publication US20220347180A1, “ENHANCING CANCER THERAPY TREATMENT WITH BH3 MIMETICS” (THE REGENTS OF THE UNIVERSITY OF COLORADO, A BODY CORPORATE, priority 2019, published 2022).
Entries after “also recorded” stand apart in the source; their conditions may differ. Read-outs that look alike come from different tables or passages of the source.

Assays:
SKMEL-28 melanoma line = assay: ATP viability assay (Cell Titer-Glo); format: cell-based; settings: Homo sapiens, SK-MEL-28; SKMEL-28, BRAFV600E, 48 h
Description: (§1) Cells were treated for 48 h for viability assays and primary sphere assays.
(§2) ATP viability assay, primary and secondary sphere assays: Cell viability was evaluated via Cell Titer-Glo Luminescent cell viability assay (Promega Corp., Madison, Wis.) according to the manufacturer's protocol. All sphere assays were completed as previously described. The experimental schematic for the primary and secondary sphere assays was described previously. All assays were performed in no less than triplicate for each cell line and repeated at least three times for each line. Drug treatments began 120 h after seeding in the primary sphere assay and 24 h after seeding for the monolayer ATP assay.
(§3) Calculation of IC50 and Combination index (CI) values: IC50 values were calculated from the relative viability results of ATP assays, and were derived by a sigmoidal dose (log)-response (variable slope) curve with GraphPad Prism 8 software. […] This method uses a median-effect equation and Combination-index theorem to calculate synergy between two drugs and identifies the drug interaction as values […]. This is defined as combination-index values (CI values). The program requires entering a series of “dose (D) and effect (fa)” into the program for each drug alone as well as the combination therapy.

MB4667 melanoma line = assay: ATP viability assay (Cell Titer-Glo); format: cell-based; settings: Homo sapiens; MB4667, NRAS Q61R, acral, 48 h
Description: as §1, §2, §3

MB2141 melanoma line = assay: ATP viability assay (Cell Titer-Glo); format: cell-based; settings: Homo sapiens; MB2141, EML4-ALK, mucosal, 48 h
Description: as §1, §2, §3

MB2114 melanoma line = assay: ATP viability assay (Cell Titer-Glo); format: cell-based; settings: Homo sapiens; MB2114, BRAF V600E, 48 h
Description: as §1, §2, §3

1205Lu melanoma line = assay: ATP viability assay (Cell Titer-Glo); format: cell-based; settings: Homo sapiens, BRAFV600E, 48 h
Description: as §1, §2, §3

Hs852T melanoma line = assay: ATP viability assay (Cell Titer-Glo); format: cell-based; settings: Homo sapiens, WT for BRAF, 48 h
Description: as §1, §2, §3

Hs294T melanoma line = assay: ATP viability assay (Cell Titer-Glo); format: cell-based; settings: Homo sapiens, Hs 294T, WT for BRAF/NRAS, 48 h
Description: as §1, §2, §3

MB3447 melanoma line = assay: ATP viability assay (Cell Titer-Glo); format: cell-based; settings: Homo sapiens; MB3447, Triple WT, 48 h
Description: as §1, §2, §3

MB2724 melanoma line = assay: ATP viability assay (Cell Titer-Glo); format: cell-based; settings: Homo sapiens; MB2724, Triple WT, acral, 48 h
Description: as §1, §2, §3

WM852c melanoma line = assay: ATP viability assay (Cell Titer-Glo); format: cell-based; settings: Homo sapiens, NRAS, 48 h
Description: as §1, §2, §3

MB3616 melanoma line = assay: ATP viability assay (Cell Titer-Glo); format: cell-based; settings: Homo sapiens; MB3616, NRAS Q61K, 48 h
Description: as §1, §2, §3

A375 melanoma line = assay: ATP viability assay (Cell Titer-Glo); format: cell-based; settings: Homo sapiens, A-375; A375, BRAFV600E, 48 h
Description: as §1, §2, §3

MB3961 melanoma line = assay: ATP viability assay (Cell Titer-Glo); format: cell-based; settings: Homo sapiens; MB3961, NRAS Q61K, 48 h
Description: as §1, §2, §3

MB3429 melanoma line = assay: ATP viability assay (Cell Titer-Glo); format: cell-based; settings: Homo sapiens, 48 h
Description: as §1, §2, §3

MB1692 melanoma line = assay: ATP viability assay (Cell Titer-Glo); format: cell-based; settings: Homo sapiens; MB1692, AGK-BRAF, 48 h
Description: as §1, §2, §3

[1] = higher doses and more frequently than in the current study; cited from earlier work
[2] = test system: regulatory T cells (Tregs); settings: cited from earlier work
[3] = test system: tumor-infiltrating immune cells; assay: Flow cytometry of tumor-infiltrating immune cells, B16 syngeneic model; format: in vivo, mouse; settings: 40 mg/kg, day 10 post tumor implantation
Description: (§4) 2.0×10^5 B16F10 melanoma cells were injected in the flanks of 7-week-old C57BL/6J mice on day 0. MCL1 inhibitors was administered retro-orbitally daily at 40 mg/kg, starting at day 6 post tumor implantation. […] Flow cytometry of tumor-infiltrating immune cells of Veh (vehicle control) and 40 mg/kg MCL1 inhibitor S63845 treated tumors at day 10 post tumor implantation. […] Similar experiments as in a, except with i.p injection. […] 2.0×10^5 B16F10 melanoma cells were injected in the flanks of 7-week-old C57BL/6J mice. MCL1-i was administered through retro-orbital injection daily at 40 mg/kg on days 5-9, and anti-PD1 was injected intraperitoneally at 250 ug on days 7, 11, 14 and 16.
(§5) Tumor volume was measured every 2 days with digital calipers. The following formula was used to calculate tumor volume: tumor volume (mm3)=(length in mm×width in mm2)/2.

human melanoma lines = assay: ATP viability assay, panel of melanoma lines; format: cell-based; settings: single drug, up to 2.5 uM, 48 h
Description: as §1, §2, §3

MP41 = MP41 uveal melanoma xenograft
Description: A uveal melanoma cell line, MP41, was used in the xenograft study, and tumor volume Panel (a) and weight of the mice Panel (b) were measured.
The viability of the DMSO control for each cell line was set to 100%. Panel (c) A uveal melanoma line, MP41, was used in the xenograft study, and tumor volume and weight of the mice were measured.
Drug treatments started when the tumors were palpable. Treatment groups consisted of randomly divided mice of at least 8 tumors each group. All drugs were prepared according to the manufacturer's protocol, or previously described. S63845 was administered at 25 mg/kg twice weekly. […] The tumor samples were collected at the end of the experiment for further studies.

B16F10 melanoma cells = format: in vivo; settings: retro-orbitally daily at 40 mg/kg from day 6 post implantation
Description: as §4, §5
Tumor volume was measured every 2 days with digital calipers.

A375 cells = assay: Viability of A375 cells with BCL2 or MCL1 knockdown; format: cell-based, human; settings: A375, 48 h
Source text: (a and b) Comparison between two genotypic groups: BRAF-hotspot mutated (MUT) (n=110) and BRAF-WT (WT) (harboring RAS hotspot mutated, any NF1 mutated, and triple wild type n=122). Panel (a) mRNA expression values for BCL2, CASP8, PDCD4, and MCL1. Panel (b) Relative RPPA protein expression values for PDCD4, CASP8, and BCL2. MCL1 was not included on the RPPA panel. Each dot represents an individual sample, and the horizontal line represents the mean. Panels (c) and (d) show the effects of BCL2 or MCL1 knockdown in A375 cells. Cells were treated with the indicated drugs for 48 h. […] Error bars represent +/−SEM.
Creation of short hairpin RNA transduced cell lines and CRISPR/Cas9-mediated BIM knockout cell lines: ShRNA lentiviral particles (Santa Cruz Biotechnology, Dallas, Tex.) were used to construct stable cell lines as previously described. BIM-knockout lines were generated using CRISPR/Cas9 technology, as previously described.

| SMILES | IC50 (SKMEL-28 melanoma line) [µM] | IC50 (MB4667 melanoma line) [µM] | IC50 (MB2141 melanoma line) [µM] | IC50 (MB2114 melanoma line) [µM] | IC50 (1205Lu melanoma line) [µM] | IC50 (Hs852T melanoma line) [µM] | IC50 (Hs294T melanoma line) [µM] | IC50 (MB3447 melanoma line) [µM] | IC50 (MB2724 melanoma line) [µM] | IC50 (WM852c melanoma line) [µM] | IC50 (MB3616 melanoma line) [µM] | IC50 (A375 melanoma line) [µM] | IC50 (MB3961 melanoma line) [µM] | IC50 (MB1692 melanoma line) [µM] | also measured |
| --- | --- | --- | --- | --- | --- | --- | --- | --- | --- | --- | --- | --- | --- | --- | --- |
| CC1(C)CCC(CN2CCN(c3ccc(C(=O)NS(=O)(=O)c4ccc(NCC5CCOCC5)c([N+](=O)[O-])c4)c(Oc4cnc5[nH]ccc5c4)c3)CC2)=C(c2ccc(Cl)cc2)C1 [ABT-199, venetoclax] | > 10 | 7.69 | > 10 | > 10 | > 10 | 8.8 | > 10 | > 10 | > 10 | > 10 | 9.69 | > 10 | > 10 | > 10 | IC50 (MB3429 melanoma line; MB3429, BRAF G596C, GNA11 R183C, read-out: IC50): 3.91 µM |
| Cc1c2c(nn1C)CSCc1cc(n(C)n1)CSc1cc(c3ccccc3c1)OCCCc1c(C(=O)O)n(C)c3c-2c(Cl)ccc13 [AZD5991] |  |  |  |  |  |  |  |  |  |  |  |  |  |  | toxicity [1]: Minimal toxicity |
| COC1=CC(c2cc3ccccc3[nH]2)=N/C1=C\c1[nH]c(C)cc1C [GX15-070] |  |  |  |  |  |  |  |  |  |  |  |  |  |  | cell death of regulatory T cells [2]: preferentially induces cell death |
| Cc1c(-c2c(-c3ccc(F)o3)sc3ncnc(O[C@H](Cc4ccccc4OCc4ccnn4CC(F)(F)F)C(=O)O)c23)ccc(OCCN2CCN(C)CC2)c1Cl [S63845] | 4 | > 10 | 2.67 | > 10 | 7.2 | 6.14 | 2.9 | 5.49 | 3.24 | 7.81 | 8.11 | 6.33 | 2.91 | 7.42 | frequency of MDSCs in tumors [3]: drastically decreased; frequency of tumor-infiltrating CD8+ T cells [3]: increased; effect on cell viability (human melanoma lines): little effect on cell viability; mouse weight (MP41): without affecting mouse weight; tumor growth (tumor volume) (MP41): significantly inhibited uveal melanoma tumor growth; IC50 (MB3429 melanoma line): 8.85 µM; tumor growth (B16F10 melanoma cells): blocked tumor growth; also recorded: inhibited tumor growth curve; sensitivity after BCL2 knockdown (shBCL2) (A375 cells): sensitized cells |
